Measured values as given in US7816331B2, “Substituted indazole-O-glucosides” (Janssen Pharmaceutica NV, priority 2003, dated 2010).

Key:
[1] = target: T1, human SGLT1 (Homo sapiens, UniProt P13866); assay: Cell-based assay for sodium-dependent glucose transport (14C-AMG uptake), CHOK-SGLT1; conditions: 10 uM compound, CHO-K1 cells stably expressing human SGLT1, Na-dependent 14C-AMG uptake; for inhibition at 10 µM: read-out: CHOK-SGLT1 % Inh (10 uM)
T1 construct: expressed in transfected cells
T1 sequence (P13866 1-664): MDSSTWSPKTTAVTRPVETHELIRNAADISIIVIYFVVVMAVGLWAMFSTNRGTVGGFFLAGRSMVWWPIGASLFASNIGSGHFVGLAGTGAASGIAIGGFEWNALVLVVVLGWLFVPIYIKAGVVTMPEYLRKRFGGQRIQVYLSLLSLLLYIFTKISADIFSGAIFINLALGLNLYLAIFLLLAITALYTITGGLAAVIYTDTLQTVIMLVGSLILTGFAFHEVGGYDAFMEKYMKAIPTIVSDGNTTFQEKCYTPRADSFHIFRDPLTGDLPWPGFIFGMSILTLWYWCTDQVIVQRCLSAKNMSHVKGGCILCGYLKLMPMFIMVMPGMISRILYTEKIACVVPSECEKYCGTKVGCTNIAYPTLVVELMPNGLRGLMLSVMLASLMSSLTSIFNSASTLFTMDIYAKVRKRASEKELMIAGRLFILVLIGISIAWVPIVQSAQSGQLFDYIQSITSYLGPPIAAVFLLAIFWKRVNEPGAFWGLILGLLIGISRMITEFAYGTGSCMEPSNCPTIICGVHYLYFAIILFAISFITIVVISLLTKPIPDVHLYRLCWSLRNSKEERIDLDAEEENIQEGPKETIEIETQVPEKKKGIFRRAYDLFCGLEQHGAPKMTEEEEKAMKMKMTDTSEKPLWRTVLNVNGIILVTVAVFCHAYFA
Protocol: (§1) Cloning of the human SGLT1 and human SGLT2 cDNAs and construction of the mammalian expression vector: The human SGLT1 cDNA (Genbank M24847) was cloned from human small intestine. Human SGLT2 cDNA (Genbank M95549) was cloned from human kidney. Both full cDNAs were subcloned into pcDNA and sequenced to verify the integrity of the construct. Generation of CHO-K1 cells stably expressing human SGLT1 or human SGLT2: Transfection of CHO-K1 cells was performed using DMRIE-C reagent (Life Technologies, Gaithersburg, Md.). Transfectants were then selected in the presence of the antibiotic G418 (Gibco-BRL, Grand Island, N.Y.) at 400 μg/ml. Individual clones were then characterized using the functional assay described below. Cell-based assay for sodium-dependent glucose transport: Cell lines stably expressing human SGLT1 or SGLT2 were then used for functional analysis of Na^+-dependent glucose uptake. Briefly, cells were plated at a density of 65,000 cells per well in a 96-well plate and allowed to grow for 48 hours. Cells were subsequently washed one time with Assay Buffer (50 mM HEPES pH 7.4, 20 mM Tris, 5 mM KCl, 1 mM MgCl2, 1 mM CaCl2 and 137 mM NaCl) and treated with compound in the absence or presence of NaCl for 15 minutes. Cells were then labeled with ^14C-α-methylglucopyranoside (AMG, Sigma, St. Louis, Mo.), a non-metabolizable glucose analog specific for sodium-dependent glucose transporters as previously described (Peng, H. and Lever J. E. Post-transcriptional regulation of Na^+/glucose cotransporter (SGLT1) gene expression in LLC-PK1 cells. J Biol Chem 1995; 270:20536-20542.). After 2 hours the labelled cells were washed three times with ice-cold PBS. After aspiration, cells were solubilized using Microscint 20 (Packard, Meriden, Conn.) and Na-dependent ^14C-AMG uptake was quantified by measuring radioactivity. Plates were counted in a TopCount (Packard, Meriden, Conn.). Results are reported as the % inhibition or IC50 value from a representative experiment. Variability for the functional assay was typically within 20%.

[2] = target: T2, human SGLT2 (Homo sapiens, UniProt P31639); assay: Cell-based assay for sodium-dependent glucose transport (14C-AMG uptake), CHOK-SGLT2; conditions: for inhibition at 10 µM: CHO-K1, read-out: CHOK-SGLT2 % Inh. @ 10 μM; for IC50: CHO-K1 cells stably expressing human SGLT2, Na-dependent 14C-AMG uptake, read-out: CHOK-SGLT2 IC50 (uM) ± SEM
T2 construct: expressed in transfected cells
T2 sequence (P31639 1-672): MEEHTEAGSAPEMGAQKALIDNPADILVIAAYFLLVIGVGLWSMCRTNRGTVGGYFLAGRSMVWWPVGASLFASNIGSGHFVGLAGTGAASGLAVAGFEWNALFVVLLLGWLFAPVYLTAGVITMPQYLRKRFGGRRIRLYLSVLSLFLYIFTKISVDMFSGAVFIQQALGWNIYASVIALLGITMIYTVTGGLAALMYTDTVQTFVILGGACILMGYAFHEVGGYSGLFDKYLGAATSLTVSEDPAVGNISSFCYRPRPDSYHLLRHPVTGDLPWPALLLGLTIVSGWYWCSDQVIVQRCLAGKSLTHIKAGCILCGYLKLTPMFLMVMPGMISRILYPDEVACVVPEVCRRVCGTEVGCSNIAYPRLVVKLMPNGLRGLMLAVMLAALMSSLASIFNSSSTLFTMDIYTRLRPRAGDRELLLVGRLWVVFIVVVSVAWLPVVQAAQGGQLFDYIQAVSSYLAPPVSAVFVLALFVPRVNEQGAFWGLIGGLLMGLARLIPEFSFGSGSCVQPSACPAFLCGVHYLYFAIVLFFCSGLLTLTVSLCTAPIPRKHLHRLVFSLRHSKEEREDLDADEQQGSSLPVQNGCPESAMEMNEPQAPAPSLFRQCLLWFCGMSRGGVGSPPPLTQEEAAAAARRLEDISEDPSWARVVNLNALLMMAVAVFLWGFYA
Protocol: as §1, with “experiment.” for “experiment. Variability for the functional assay was typically within 20%.”

SMILES | CHOK-SGLT1 % Inh (10 uM) [1] | inhibition at 10 µM [2] | inhibition at 10 µM [1] | IC50 [2]
Cc1cc(OC2OC(CO)C(O)C(O)C2O)c2c(CCC3CCCCC3)n[nH]c2c1 [Example 17, 2-[3-(2-Cyclohexyl-ethyl)-6-methyl-1H-indazol-4-yloxy]-β-D-glucopyranoside] | inactive | 67% | – | –
OC[C@H]1O[C@@H](Oc2cccc3[nH]nc(CCc4ccc5occc5c4)c23)[C@H](O)[C@@H](O)[C@@H]1O [Example 18] | – | – | 43% | 1.2 ± 0.071 µM
CCc1cc(O[C@@H]2O[C@H](CO)[C@@H](O)[C@H](O)[C@H]2O)c2c(CCc3ccc4c(c3)CCO4)n[nH]c2c1 [Example 19, 2-{3-[2-(2,3-Dihydro-benzofuran-5-yl)-ethyl]-6-ethyl-1H-indazol-4-yloxy}-D-glucopyranoside] | inactive | – | – | 0.532 ± 0.047 µM
COc1ccc(SCc2n[nH]c3cccc(OC4OC(CO)C(O)C(O)C4O)c23)cc1 [Example 20, 2-[3-(4-Methoxy-phenylsulfanylmethyl)-1H-indazol-4-yloxy]-β-D-glucopyranoside] | – | 64% | 38% | –
COc1ccc(Cc2n[nH]c3cc(C)cc(O[C@@H]4O[C@H](CO)[C@@H](O)[C@H](O)[C@H]4O)c23)cc1 [Example 21, 2-[3-(4-Methoxy-benzyl)-6-methyl-1H-indazol-4-yloxy]-β-D-glucopyranoside] | inactive | – | – | 0.959 ± 0.118 µM
Cc1cc(O[C@@H]2O[C@H](CO)[C@@H](O)[C@H](O)[C@H]2O)c2c(Cc3ccc4c(c3)CCO4)n[nH]c2c1 [Example 22, 2-[3-(2,3-Dihydro-benzofuran-5-ylmethyl)-6-methyl-1H-indazol-4-yloxy]-β-D-glucopyranoside] | inactive | 40% | – | –
